Here are results for one compound from ChEMBL document CHEMBL3886996, “6-alkynyl-pyridine derivatives” (2016).

The target in this test is Baculoviral IAP repeat-containing protein 2 (Homo sapiens, UniProt Q13490). The test is described as follows: Binding Assays (DELFIA): BIR3 domains (10 nM) were incubated with SMAC peptide (10 nM) in assay buffer (50 mM Tris, 120 mM NaCl, 0.1% BSA, 1 mM DTT, 0.05% Triton X100) for one hour at room temperature in the presence of inhibitory compounds. The assay mixture was transferred to a streptavidin coated plate and incubated for one hour at room temperature to allow binding of the biotinylated peptide and associated BIR3 domains to the plate. After several washing steps Eu labeled anti-GST antibody (e.g. Perkin Elmer DELFIA Eu-N1-antiGST AD0250) was added to detect BIR3 domain-SMAC peptide interactions according to Perkin Elmer's instructions. Briefly, the antibody was added (dilution 1:5000 in Perkin Elmer DELFIA Assay Buffer 2013-01) and incubated for one hour. After 3 washing steps using Delfia Washing Buffer (Perkin Elmer DELFIA Wash 2013-05), Enhancement Solution (Perkin Elmer Enhancement Asolution 2013-02) was added and incubation continued for 10 minutes.

One may read the IC50 as the point on the concentration scale where inhibition reaches its midpoint.

Take `CN[C@@H](C)C(=O)Nc1ccc(-c2c(-c3cccnc3OC)nc3ccccn23)c(C#Cc2ccc3c(C)nccc3c2)n1`: the IC50 result is “in the range around 2 nM”.
